Counter-ions that a name gives are not always drawn. Like-named read-outs stand apart in the source and are kept apart here.
Assays:
NCI-H929 = assay: Cytostatic activity on human multiple myeloma cell line NCI-H929 (WST-1); type: cell-based; settings: for inhibition at 10 µM / inhibition at 1 µM: Homo sapiens; for inhibition at 10 µM: 10 μmol/L, read-out: cytostatic rate (%) H929 (10 μmol/L); for inhibition at 1 µM: read-out: cytostatic rate (%) H929 (1 μmol/L)
Outline: (§1)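 Cytostatic rate is 100 minus % growth relative to DMSO-only wells (100%) and blank wells (0%), read by WST-1 absorbance at 450/690 nm after 2 h. Compound at 1 or 10 μmol/L final was applied for 72 h at 37 °C to cells seeded 24 h earlier.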

IGF-1R = target: T1, IGF-1R (Homo sapiens, UniProt P08069); assay: IGF-1R inhibitory activity (kinase reaction, time-resolved fluoroimmunoassay); type: biochemical; settings: test compound 10 μmol/L
T1 construct: purchased Upstate Co. 14-465
T1 sequence (P08069 959-1367 limits assumed): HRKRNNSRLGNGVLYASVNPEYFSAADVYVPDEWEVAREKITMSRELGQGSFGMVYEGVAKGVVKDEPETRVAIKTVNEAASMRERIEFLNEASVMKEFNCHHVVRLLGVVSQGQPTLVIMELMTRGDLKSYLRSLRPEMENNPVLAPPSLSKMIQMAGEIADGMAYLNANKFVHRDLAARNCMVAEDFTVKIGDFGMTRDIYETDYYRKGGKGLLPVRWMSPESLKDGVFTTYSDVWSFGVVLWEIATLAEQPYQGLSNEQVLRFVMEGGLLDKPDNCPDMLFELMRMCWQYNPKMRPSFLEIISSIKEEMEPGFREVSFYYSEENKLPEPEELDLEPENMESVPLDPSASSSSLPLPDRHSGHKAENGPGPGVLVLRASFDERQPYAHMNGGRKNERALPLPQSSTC
Outline: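 Compounds were tested at a single 10 μmol/L concentration. Each was incubated with recombinant IGF-1R (200 μg/L), 10 mmol/L ATP, MgCl2/MnCl2 and Na3VO4 (pH 7.5) on immobilized poly(Glu-Tyr) peptide for 30 min at 24° C. Eu-anti-phosphotyrosine time-resolved fluorescence (340/615 nm) gave relative activity against no-compound and no-enzyme wells, reported as % inhibition.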

KMS-11 = assay: Cytostatic activity on human multiple myeloma cell line KMS-11 (WST-1); type: cell-based; settings: for inhibition at 10 µM / inhibition at 1 µM: Homo sapiens; for inhibition at 10 µM: 10 μmol/L, read-out: cytostatic rate (%) KMS-11 (10 μmol/L); for inhibition at 1 µM: read-out: cytostatic rate (%) KMS-11 (1 μmol/L)
Outline: as §1

[1] = IGF-1R active recombinant enzyme
[2] = NCI-H929, 72 h, NCI-H929 cells, test compound 1 μmol/L, WST-1
[3] = KMS-11, 72 h, KMS-11 cells, test compound 1 μmol/L, WST-1
[4] = NCI-H929, 72 h, 1 μmol/L, 72 hours
[5] = KMS-11, 72 h, 1 μmol/L, 72 hours

| SMILES | inhibition at 10 µM (NCI-H929; NCI-H929, 72 h, 72 hours) [%] | inhibition at 10 µM (IGF-1R; [1]) [%] | inhibition at 10 µM (KMS-11; KMS-11, 72 h, 72 hours) [%] | inhibition at 1 µM (NCI-H929; [4]) [%] | inhibition at 1 µM (KMS-11; [5]) [%] | also measured |
| --- | --- | --- | --- | --- | --- | --- |
| O=C(Nc1nccs1)c1ccccc1/C=C/c1n[nH]c2ccccc12 [Compound 138, (E)-2-[2-(1H-indazol-3-yl)vinyl]-N-(thiazol-2-yl)benzamide] | 114 | 97.2 | 101 | – | – | – |
| COCCN(CCN1CCOCC1)c1ccc(/C=C/c2n[nH]c3ccccc23)c(NC(=O)c2sccc2C)c1 [Compound 267, (E)-N-{2-[2-(1H-indazol-3-yl)vinyl]-5-[N-(2-methoxyethyl)-2-(morpholinoethyl)amino]phenyl}-3-methylthiophene-2-carboxamide] | – | – | – | – | – | cytostatic rate (%) H929 (1 μmol/L) (NCI-H929; 1 μmol/L, 72 hours): 118.1%; inhibitory activity (%) at 10 μmol/L (IGF-1R; [1]): 100.3%; cytostatic rate (%) KMS-11 (1 μmol/L) (KMS-11; 1 μmol/L, 72 hours): 133.8% |
| COCCCN1CCN(C(=O)c2ccc(/C=C/c3n[nH]c4ccccc34)c(N3C(=O)c4cccc(N)c4C3=O)c2)CC1 [Compound 309, (E)-4-amino-2-{2-[2-(1H-indazol-3-yl)vinyl]-5-[4-(3-methoxypropyl)piperazin-1-ylcarbonyl]phenyl}isoindole-1,3-dione] | – | 97.1 | – | – | – | inhibition at 1 µM (NCI-H929; [2]): 115%; inhibition at 1 µM (KMS-11; [3]): 113% |
| CC(=O)N1CCN(C(=O)c2ccc(/C=C/c3n[nH]c4ccccc34)c(NC(=O)c3cccn3C)c2)CC1 [Compound 91, (E)-N-{5-(4-acetylpiperazin-1-ylcarbonyl)-2-[2-(1H-indazol-3-yl)vinyl]phenyl}-1-methyl-1H-pyrrole-2-carboxamide] | 115 | – | 144 | – | – | inhibition at 10 µM (IGF-1R): 98.7% |
| Cc1ccsc1C(=O)Nc1cc(C(=O)N2CCC3(CC2)OCCO3)ccc1/C=C/c1n[nH]c2ccccc12 [Compound 119, (E)-N-{5-(1,4-dioxa-8-azaspiro[4,5]decane-8-carbonyl)-2-[2-(1H-indazol-3-yl)vinyl]phenyl}-3-methylthiophene-2-carboxamide] | – | – | – | – | – | inhibition at 10 µM (NCI-H929; NCI-H929, 72 hours): 117%; inhibition at 10 µM (IGF-1R): 102%; inhibition at 10 µM (KMS-11; KMS-11, 72 hours): 116% |
| O=C(Nc1ccccc1/C=C/c1n[nH]c2ccccc12)c1ccc(F)cc1 [Compound 3, (E)-4-fluoro-N-{2-[2-(1H-indazol-3-yl)vinyl]phenyl}benzamide] | 115 | 99.1 | 118 | – | – | – |
| O=C(Nc1ccccc1)c1ccccc1/C=C/c1n[nH]c2ccccc12 [Compound 47, (E)-N-phenyl-2-[2-(1H-indazol-3-yl)vinyl]benzamide] | 100 | 90.1 | 92.1 | – | – | – |
| Cc1ccsc1C(=O)Nc1cc(N2CCN(C)CC2)ccc1/C=C/c1n[nH]c2ccccc12 [Compound 262, (E)-N-{2-[2-(1H-indazol-3-yl)vinyl]-5-(4-methylpiperazin-1-yl)phenyl}-3-methylthiophene-2-carboxamide] | – | 103 | – | 119 | 119 | – |
| COc1cscc1C(=O)Nc1ccccc1/C=C/c1n[nH]c2ccccc12 [Compound 53, (E)-N-{2-[2-(1H-indazol-3-yl)vinyl]phenyl}-4-methoxythiophene-3-carboxamide] | 114 | 98.9 | 126 | – | – | – |
| Cc1ccsc1C(=O)Nc1cc(CN2CCC(N3CCOCC3)CC2)ccc1/C=C/c1n[nH]c2ccccc12 [Compound 296, (E)-N-{2-[2-(1H-indazol-3-yl)vinyl]-5-[4-(morpholin-4-yl)piperidin-1-ylmethyl]phenyl}-3-methylthiophene-2-carboxamide] | – | 99.9 | – | 117 | 112 | – |
| CCN(CCO)CCCOc1ccc(/C=C/c2n[nH]c3ccccc23)c(NC(=O)c2sccc2C)c1OC [Compound 339, (E)-N-{3-{3-[N-ethyl(2-hydroxyethyl)amino]propoxy}-6-[2-(1H-indazol-3-yl)vinyl]-2-methoxyphenyl}-3-methylthiophene-2-carboxamide] | – | 104 | – | – | – | inhibition at 1 µM (NCI-H929; [2]): 119%; inhibition at 1 µM (KMS-11; [3]): 118% |
| Cc1ccsc1C(=O)Nc1cc(N2CCNCC2)ccc1/C=C/c1n[nH]c2ccccc12 [Compound 274, (E)-N-{2-[2-(1H-indazol-3-yl)vinyl]-5-piperazin-1-ylphenyl}-3-methylthiophene-2-carboxamide] | – | 104 | – | 114 | 108 | – |
| Cc1ccsc1C(=O)Nc1cc(C(=O)N2CCN(C(=O)[C@@H]3CCCN3)CC2)ccc1/C=C/c1n[nH]c2ccccc12 [Compound 231, (S)-(E)-N-{2-[2-(1H-indazol-3-yl)vinyl]-5-[4-(pyrrolidin-2-ylcarbonyl)piperazin-1-ylcarbonyl]phenyl}-3-methylthiophene-2-carboxamide] | – | 99.7 | – | 122 | 80.2 | – |
| CN1CCN(C(=O)c2ccc(/C=C/c3n[nH]c4ccccc34)c(N3C(=O)c4cccc(N)c4C3=O)c2)CC1 [Compound 315, (E)-4-amino-2-{2-[2-(1H-indazol-3-yl)vinyl]-5-(4-methylpiperazin-1-ylcarbonyl)phenyl}isoindole-1,3-dione] | – | 106 | – | – | – | inhibition at 1 µM (NCI-H929; [2]): 113%; inhibition at 1 µM (KMS-11; [3]): 106% |
| Cc1ccsc1C(=O)Nc1ccc(O)cc1/C=C/c1n[nH]c2ccccc12 [Compound 110, (E)-N-{4-hydroxy-2-[2-(1H-indazol-3-yl)vinyl]phenyl}-3-methylthiophene-2-carboxamide] | 116 | – | 118 | – | – | inhibition at 10 µM (IGF-1R): 96.3% |
| CC(=O)c1ccc(C(=O)Nc2ccccc2/C=C/c2n[nH]c3ccccc23)s1 [Compound 43, (E)-5-acetyl-N-{2-[2-(1H-indazol-3-yl)vinyl]phenyl}thiophene-2-carboxamide] | 113 | 96.3 | 112 | – | – | – |
| COCCCN(CCO)C(=O)c1ccc(/C=C/c2n[nH]c3ccccc23)c(NC(=O)c2sccc2C)c1 [Compound 256, (E)-N-{5-[N-(2-hydroxyethyl)-N-(3-methoxypropyl)carbamoyl]-2-[2-(1H-indazol-3-yl)vinyl]phenyl}-3-methylthiophene-2-carboxamide] | – | 100 | – | 122 | 105 | – |
| Cc1ccsc1C(=O)Nc1cc(C(=O)NCCN(C)C)ccc1/C=C/c1n[nH]c2ccccc12 [Compound 229, (E)-N-{5-[2-(dimethylamino)ethylcarbamoyl]-2-[2-(1H-indazol-3-yl)vinyl]phenyl}-3-methylthiophene-2-carboxamide hydrochloride] | – | 99.3 | – | 121 | 66.8 | – |
| Cc1ccc(C(=O)Nc2ccccc2/C=C/c2n[nH]c3ccccc23)cc1 [Compound 5, (E)-N-{2-[2-(1H-indazol-3-yl)vinyl]phenyl}-4-methylbenzamide] | 116 | 99.1 | 129 | – | – | – |
| COCCN(CCN1CCOCC1)C(=O)c1ccc(/C=C/c2n[nH]c3ccccc23)c(NC(=O)c2sccc2C)c1 [Compound 249, (E)-N-(2-[2-(1H-indazol-3-yl)vinyl]-5-{N-(2-methoxyethyl)-N-[2-(morpholin-4-yl)ethyl]carbamoyl}phenyl)-3-methylthiophene-2-carboxamide] | – | 100 | – | 113 | 113 | – |
| Cc1ccsc1C(=O)Nc1ccc(N2CCN(C)CC2)cc1/C=C/c1n[nH]c2ccccc12 [Compound 228, (E)-N-{2-[2-(1H-indazol-3-yl)vinyl]-4-(4-methylpiperazin-1-yl)phenyl}-3-methylthiophene-2-carboxamide] | – | 100 | – | 114 | 58 | – |
| O=C(Nc1ccccc1/C=C/c1n[nH]c2ccccc12)c1cc2sccc2s1 [Compound 57, (E)-N-{2-[2-(1H-indazol-3-yl)vinyl]phenyl}thieno[3,2-b]thiophene-2-carboxamide] | 117 | 98.3 | 141 | – | – | – |
| Cc1ccsc1C(=O)Nc1cc(CN2CCC(CCC(C)(C)O)CC2)ccc1/C=C/c1n[nH]c2ccccc12 [Compound 322, (E)-N-{5-[4-(3-hydroxy-3-methylbutyl)piperidin-1-ylmethyl]-2-[2-(1H-indazol-3-yl)vinyl]phenyl}-3-methylthiophene-2-carboxamide] | – | 99.1 | – | – | – | inhibition at 1 µM (NCI-H929; [2]): 122%; inhibition at 1 µM (KMS-11; [3]): 106% |
| COc1c(OCCN2C(=O)CNC2=O)ccc(/C=C/c2n[nH]c3ccccc23)c1NC(=O)c1sccc1C [Compound 334, (E)-N-{6-[2-(1H-indazol-3-yl)vinyl]-2-methoxy-3-[2-(2,5-dioxoimidazolidin-1-yl)ethoxy]phenyl}-3-methylthiophene-2-carboxamide] | – | 102 | – | – | – | inhibition at 1 µM (NCI-H929; [2]): 111%; inhibition at 1 µM (KMS-11; [3]): 97.5% |

— patent publication US7605272B2, “IGF-1R inhibitor” (Kyowa Hakko Kirin Co., Ltd., priority 2005, dated 2009)
